Source: ChEMBL document CHEMBL5344402, “A multi-target directed ligands strategy for the treatment of Alzheimer's disease: Dimethyl fumarate plus Tranilast modified Dithiocarbate as AChE inhibitor and Nrf2 activator” (Eur J Med Chem, 2022)
Activity calls are given as the source filed them. The rule behind the calls is not given here.

Legend:
in vitro = conditions: PAMPA
Acetylcholinesterase [1] = target: Acetylcholinesterase (Electrophorus electricus, UniProt O42275); experiment: Inhibition of electric eel AChE using acetylthiocholine iodide as substrate preincubated for 5 mins followed by substrate addition by DTNB reagent based Ellman's method
[2] = target: Cholinesterase (Equus caballus) (UniProt P81908); experiment: Inhibition of equine serum BuChE using butyrylthiocholine iodide as substrate at 10 uM preincubated for 5 mins followed by substrate addition by DTNB reagent based Ellman's method relative to control; type: cell-free
[3] = target: Cholinesterase (Homo sapiens) (UniProt P06276); experiment: Inhibition of human BuChE using butyrylthiocholine iodide as substrate at 10 uM preincubated for 5 mins followed by substrate addition by DTNB reagent based Ellman's method relative to control
Acetylcholinesterase [4] = target: Acetylcholinesterase (Homo sapiens, UniProt P22303); experiment: Inhibition of human AChE using acetylthiocholine iodide as substrate preincubated for 5 mins followed by substrate addition by DTNB reagent based Ellman's method
[5] = target: T1, Nuclear factor erythroid 2-related factor 2 (Mus musculus) (UniProt Q60795); experiment: Activation of NRF2 in mouse BV-2 cells assessed as increase in HO-1 protein expression at 7 uM incubated for 3 to 9 hrs by Western blotting analysis; type: cell-based; conditions: filed as activator, time 3-9 hrs
T1 sequence (whole entry): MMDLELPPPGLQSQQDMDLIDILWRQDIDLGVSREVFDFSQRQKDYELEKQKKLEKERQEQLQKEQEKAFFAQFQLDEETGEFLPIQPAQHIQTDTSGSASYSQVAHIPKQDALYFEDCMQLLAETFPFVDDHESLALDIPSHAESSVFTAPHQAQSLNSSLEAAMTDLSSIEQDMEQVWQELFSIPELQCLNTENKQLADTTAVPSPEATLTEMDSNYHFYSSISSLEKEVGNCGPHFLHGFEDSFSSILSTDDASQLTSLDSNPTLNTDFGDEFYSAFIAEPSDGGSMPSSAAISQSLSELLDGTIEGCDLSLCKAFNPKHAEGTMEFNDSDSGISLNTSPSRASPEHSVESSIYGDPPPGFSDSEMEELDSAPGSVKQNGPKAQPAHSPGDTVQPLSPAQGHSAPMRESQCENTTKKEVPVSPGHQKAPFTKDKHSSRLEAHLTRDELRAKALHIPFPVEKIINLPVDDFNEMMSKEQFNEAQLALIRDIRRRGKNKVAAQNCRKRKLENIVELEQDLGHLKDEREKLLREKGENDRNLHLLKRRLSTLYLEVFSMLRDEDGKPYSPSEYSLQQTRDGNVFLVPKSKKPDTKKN

[6] = Acute toxicity in Kunming mouse assessed as lung pathological change at 625 to 2500 mg/kg,po administration for 14 days by Hematoxylin and eosin based staining analysis; type: organism-based; conditions: in vivo, 336 h, dose 625-2500 mg/kg, time 14 day
BV-2 [7] = experiment: Cytoprotective activity against H2O2-induced toxicity in mouse BV-2 cells assessed as decrease in ROS production incubated for 6 hrs by DCFH-DA staining based inverted fluorescence microscopic analysis; type: functional, cell-based
BV-2 [8] = experiment: Activation of NRF2/ARE in mouse BV-2 cells assessed as upregulation of nuclear NRF2 expression at 7 uM incubated for 4 hrs by Western blotting analysis; type: cell-based; conditions: filed as activator
[9] = target: T1, Nuclear factor erythroid 2-related factor 2 (Mus musculus); experiment: Activation of NRF2 in mouse BV-2 cells assessed as increase in HO-1 protein expression at 7 uM by Western blotting analysis; type: cell-based; conditions: filed as activator, TDE = time-dependent effect
[10] = target: T1, Nuclear factor erythroid 2-related factor 2 (Mus musculus); experiment: Activation of NRF2 in mouse BV-2 cells assessed as increase in NQO1 protein expression incubated for 8 hrs by Western blotting analysis; type: cell-based; conditions: filed as activator
BV-2 [11] = experiment: Activation of NRF2/ARE in mouse BV-2 cells assessed as upregulation of NRF2 expression incubated for 8 hrs by Western blotting analysis; type: cell-based; conditions: filed as activator
BV-2 [12] = experiment: Cytotoxicity against mouse BV-2 cells upto 10 uM incubated for 24 hrs by CCK-8 assay; type: toxicity, cell-based; conditions: bv-2, 24 h
Mus musculus [13] = experiment: Antialzheimer activity in scopolamine-induced cognitive impairment Kunming mouse model assessed as increase in latency at 15 mg/kg,po administration by step-down assay; type: functional, organism-based
Mus musculus [14] = experiment: Antialzheimer activity in scopolamine-induced cognitive impairment Kunming mouse model assessed as decrease in number of latency error at po administration by step-down assay; type: functional, organism-based
[15] = Drug degradation in serum (unknown origin) incubated for 12 hrs by HPLC analysis; type: ADME, cell-free; conditions: read-out: Drug degradation
[16] = target: T1, Nuclear factor erythroid 2-related factor 2 (Mus musculus); experiment: Activation of NRF2 in mouse BV-2 cells assessed as increase in GPX4 protein expression at 7 uM incubated for 3 to 9 hrs by Western blotting analysis; type: cell-based; conditions: filed as activator, time 3-9 hrs
BV-2 [17] = experiment: Activation of NRF2/ARE in mouse BV-2 cells assessed as upregulation of cytosolic NRF2 expression at 7 uM incubated for 10 hrs by Western blotting analysis; type: cell-based
[18] = Acute toxicity in Kunming mouse assessed as kidney pathological change at 625 to 2500 mg/kg,po administration for 14 days by Hematoxylin and eosin based staining analysis; type: organism-based; conditions: in vivo, 336 h, dose 625-2500 mg/kg, time 14 day
BV-2 [19] = experiment: Anti-neuroinflammatory activity in mouse BV-2 cells assessed as reduction in LPS-induced TNF-alpha production incubated for 6 hrs followed by LPS addition measured after 24 hrs by ELISA; type: functional, cell-based; conditions: time 30.0 hrs
BV-2 [20] = experiment: Anti-neuroinflammatory activity in mouse BV-2 cells assessed as reduction in LPS-induced NO production incubated for 6 hrs followed by LPS addition measured after 24 hrs by Griess reagent based assay; type: functional, cell-based; conditions: time 30.0 hrs
BV-2 [21] = experiment: Anti-neuroinflammatory activity in mouse BV-2 cells assessed as reduction in LPS-induced IL-6 production incubated for 6 hrs followed by LPS addition measured after 24 hrs by ELISA; type: functional, cell-based; conditions: time 30.0 hrs
Mus musculus [22] = experiment: Antialzheimer activity in scopolamine-induced cognitive impairment Kunming mouse model assessed as increase in latency at po administration by step-down assay; type: functional, organism-based
[23] = Acute toxicity in Kunming mouse assessed as brain pathological change at 625 to 2500 mg/kg,po administration for 14 days by Hematoxylin and eosin based staining analysis; type: organism-based; conditions: in vivo, 336 h, dose 625-2500 mg/kg, time 14 day
[24] = Acute toxicity in Kunming mouse assessed as heart pathological change at 625 to 2500 mg/kg,po administration for 14 days by Hematoxylin and eosin based staining analysis; type: organism-based; conditions: in vivo, 336 h, dose 625-2500 mg/kg, time 14 day
BV-2 [25] = experiment: Anti-neuroinflammatory activity in mouse BV-2 cells assessed as reduction in LPS-induced iNOS expression at 1 to 7 uM incubated for 6 hrs followed by LPS addition measured after 24 hrs by Western blotting analysis; type: functional, cell-based; conditions: dose 1-7 µM, time 30.0 hrs
[26] = Acute toxicity in Kunming mouse assessed as change in body weight at 625 to 2500 mg/kg,po administration for 14 days; type: organism-based; conditions: in vivo, 336 h, dose 625-2500 mg/kg, time 14 day
[27] = target: T1, Nuclear factor erythroid 2-related factor 2 (Mus musculus); experiment: Activation of NRF2 in mouse BV-2 cells assessed as increase in GPX4 protein expression incubated for 8 hrs by Western blotting analysis; type: cell-based; conditions: filed as activator
[28] = Acute toxicity in Kunming mouse assessed as liver pathological change at 625 to 2500 mg/kg,po administration for 14 days by Hematoxylin and eosin based staining analysis; type: organism-based; conditions: in vivo, 336 h, dose 625-2500 mg/kg, time 14 day
[29] = target: T1, Nuclear factor erythroid 2-related factor 2 (Mus musculus); experiment: Activation of NRF2 in mouse BV-2 cells assessed as increase in GPX4 protein expression at 7 uM by Western blotting analysis; type: cell-based; conditions: filed as activator, TDE = time-dependent effect
BV-2 [30] = experiment: Cytoprotective activity against H2O2-induced toxicity in mouse BV-2 cells assessed as increase in cell viability incubated for 6 hrs by CCK-8 assay; type: functional, cell-based
[31] = target: T1, Nuclear factor erythroid 2-related factor 2 (Mus musculus); experiment: Activation of NRF2 in mouse BV-2 cells assessed as increase in NQO1 protein expression at 7 uM by Western blotting analysis; type: cell-based; conditions: filed as activator, TDE = time-dependent effect
BV-2 [32] = experiment: Anti-neuroinflammatory activity in mouse BV-2 cells assessed as reduction in LPS-induced COX-2 expression at 1 to 7 uM incubated for 6 hrs followed by LPS addition measured after 24 hrs by Western blotting analysis; type: functional, cell-based; conditions: dose 1-7 µM, time 30.0 hrs
[33] = target: T1, Nuclear factor erythroid 2-related factor 2 (Mus musculus); experiment: Activation of NRF2 in mouse BV-2 cells assessed as increase in NQO1 protein expression at 7 uM incubated for 3 to 9 hrs by Western blotting analysis; type: cell-based; conditions: filed as activator, time 3-9 hrs
Mus musculus [34] = experiment: Antialzheimer activity in scopolamine-induced cognitive impairment Kunming mouse model assessed as increase in latency at 7.5 mg/kg,po administration by step-down assay; type: functional, organism-based
[35] = Acute toxicity in Kunming mouse assessed as behavioral abnormalities at 625 to 2500 mg/kg,po administration for 4 hrs; type: organism-based; conditions: in vivo, dose 625-2500 mg/kg
[36] = target: T1, Nuclear factor erythroid 2-related factor 2 (Mus musculus); experiment: Activation of NRF2 in mouse BV-2 cells assessed as increase in HO-1 protein expression incubated for 8 hrs by Western blotting analysis; type: cell-based; conditions: filed as activator
BV-2 [37] = experiment: Activation of NRF2/ARE in mouse BV-2 cells assessed as upregulation of NRF2 expression at 7 uM by Western blotting analysis; type: cell-based; conditions: filed as activator, TDE = time-dependent effect
[38] = Stability of the compound in serum (unknown origin) assessed as drug degradation incubated for 8 hrs by HPLC analysis; type: ADME, cell-free

Sequence of Cholinesterase (Equus caballus) (P81908 whole entry): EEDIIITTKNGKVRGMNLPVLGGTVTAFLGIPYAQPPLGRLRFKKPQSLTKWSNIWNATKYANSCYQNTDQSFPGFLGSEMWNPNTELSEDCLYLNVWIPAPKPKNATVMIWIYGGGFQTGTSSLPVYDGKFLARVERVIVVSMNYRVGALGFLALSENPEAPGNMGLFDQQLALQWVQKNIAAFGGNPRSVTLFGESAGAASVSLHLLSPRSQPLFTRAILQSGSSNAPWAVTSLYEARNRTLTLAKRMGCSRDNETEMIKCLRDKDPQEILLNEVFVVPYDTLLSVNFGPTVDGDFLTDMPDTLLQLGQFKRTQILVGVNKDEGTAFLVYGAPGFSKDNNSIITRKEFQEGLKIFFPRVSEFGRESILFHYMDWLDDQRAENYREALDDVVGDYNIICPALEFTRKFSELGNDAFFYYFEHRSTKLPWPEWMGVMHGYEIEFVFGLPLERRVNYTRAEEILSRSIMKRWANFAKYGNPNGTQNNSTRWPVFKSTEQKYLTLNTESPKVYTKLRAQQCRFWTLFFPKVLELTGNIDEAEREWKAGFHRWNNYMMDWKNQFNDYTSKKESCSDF
Sequence of Acetylcholinesterase (Electrophorus electricus, UniProt O42275) (O42275 whole entry): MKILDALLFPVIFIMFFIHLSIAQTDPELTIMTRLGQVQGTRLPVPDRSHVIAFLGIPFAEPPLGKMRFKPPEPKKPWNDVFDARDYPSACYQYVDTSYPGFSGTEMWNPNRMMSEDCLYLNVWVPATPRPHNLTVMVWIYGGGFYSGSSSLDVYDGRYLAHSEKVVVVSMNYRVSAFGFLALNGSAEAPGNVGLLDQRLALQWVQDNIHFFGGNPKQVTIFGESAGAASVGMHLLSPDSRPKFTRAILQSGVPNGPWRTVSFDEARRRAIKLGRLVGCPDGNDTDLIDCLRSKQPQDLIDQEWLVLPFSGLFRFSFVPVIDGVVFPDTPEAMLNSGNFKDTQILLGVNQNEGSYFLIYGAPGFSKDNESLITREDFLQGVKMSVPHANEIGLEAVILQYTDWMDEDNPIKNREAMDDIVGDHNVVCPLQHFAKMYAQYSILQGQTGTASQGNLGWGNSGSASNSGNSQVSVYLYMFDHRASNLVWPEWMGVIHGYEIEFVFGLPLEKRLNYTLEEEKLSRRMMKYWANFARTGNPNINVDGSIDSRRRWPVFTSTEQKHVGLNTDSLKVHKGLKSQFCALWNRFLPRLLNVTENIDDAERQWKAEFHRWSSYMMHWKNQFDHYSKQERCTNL
Sequence of Acetylcholinesterase (Homo sapiens, UniProt P22303) (P22303 whole entry): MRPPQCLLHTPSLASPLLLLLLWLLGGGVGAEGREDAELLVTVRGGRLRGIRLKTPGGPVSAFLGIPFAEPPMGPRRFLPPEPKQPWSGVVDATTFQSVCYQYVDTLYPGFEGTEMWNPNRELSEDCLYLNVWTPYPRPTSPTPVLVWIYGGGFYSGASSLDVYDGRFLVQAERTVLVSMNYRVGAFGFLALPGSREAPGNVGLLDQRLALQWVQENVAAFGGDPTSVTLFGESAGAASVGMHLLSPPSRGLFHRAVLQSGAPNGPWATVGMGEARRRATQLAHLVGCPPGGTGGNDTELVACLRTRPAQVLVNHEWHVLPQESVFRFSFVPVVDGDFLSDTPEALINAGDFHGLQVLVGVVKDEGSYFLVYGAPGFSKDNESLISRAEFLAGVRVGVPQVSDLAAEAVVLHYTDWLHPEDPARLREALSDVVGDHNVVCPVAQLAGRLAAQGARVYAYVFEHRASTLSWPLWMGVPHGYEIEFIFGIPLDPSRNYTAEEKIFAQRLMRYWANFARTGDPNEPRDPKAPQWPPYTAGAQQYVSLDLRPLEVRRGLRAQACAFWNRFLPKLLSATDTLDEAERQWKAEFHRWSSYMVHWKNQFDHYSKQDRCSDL
Sequence of Cholinesterase (Homo sapiens) (P06276 whole entry): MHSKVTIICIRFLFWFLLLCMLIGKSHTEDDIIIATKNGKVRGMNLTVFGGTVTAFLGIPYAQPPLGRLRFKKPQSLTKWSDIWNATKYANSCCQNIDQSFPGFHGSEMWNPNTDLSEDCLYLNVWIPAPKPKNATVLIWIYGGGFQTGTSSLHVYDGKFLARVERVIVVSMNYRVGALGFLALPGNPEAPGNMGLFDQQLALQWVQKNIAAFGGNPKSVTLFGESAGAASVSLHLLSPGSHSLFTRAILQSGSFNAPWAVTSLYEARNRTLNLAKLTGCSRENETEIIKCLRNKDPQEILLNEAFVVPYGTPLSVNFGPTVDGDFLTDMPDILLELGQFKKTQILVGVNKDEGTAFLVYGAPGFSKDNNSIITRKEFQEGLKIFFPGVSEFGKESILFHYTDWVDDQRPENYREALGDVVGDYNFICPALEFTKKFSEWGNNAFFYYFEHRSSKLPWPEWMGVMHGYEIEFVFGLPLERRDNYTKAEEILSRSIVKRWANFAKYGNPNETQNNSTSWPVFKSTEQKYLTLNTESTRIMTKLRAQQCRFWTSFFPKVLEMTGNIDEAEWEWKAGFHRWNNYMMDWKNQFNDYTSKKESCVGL

COC(=O)/C=C/C(=O)Nc1cccc(OCCCCSC(=S)N2CCCCC2)c1
Papp at 18 h (in vitro): 15.5 ×10⁻⁶ cm/s | IC50 (Acetylcholinesterase [1]): 0.37 µM | inhibition [2]: < 5% | inhibition [3]: < 5% | IC50 (Acetylcholinesterase [4]): 0.21 µM

CCN(CC)C(=S)SCCCCOc1cccc(NC(=O)/C=C/C(=O)OC)c1
IC50 (Acetylcholinesterase [1]): 11.3 µM | inhibition [2]: > 5%

COC(=O)/C=C/C(=O)Nc1cccc(OCCCCSC(=S)N(C)C)c1
IC50 (Acetylcholinesterase [1]): 56.5 µM | inhibition [2]: 7.25%

COC(=O)/C=C/C(=O)Nc1cccc(OCCCCSC(=S)N2CCCCC2C)c1 (centres undefined)
Activity [5]: Active | Papp at 18 h (in vitro): 17.9 ×10⁻⁶ cm/s | Activity [6]: Non-Toxic | Activity (BV-2 [7]): Dose-Dependent Effect | Activity (BV-2 [8]): Active | Activity [9]: Tde | Activity [10]: Dose-Dependent Effect | Activity (BV-2 [11]): Dose-Dependent Effect | Activity (BV-2 [12]): Non-Toxic | Activity (Mus musculus [13]): Active | IC50 (Acetylcholinesterase [1]): 0.088 µM | Activity (Mus musculus [14]): Dose-Dependent Effect | metabolised at 12 h [15]: 50% | Activity [16]: Active | Activity (BV-2 [17]): inactive | Activity [18]: Non-Toxic | Activity (BV-2 [19]): Dose-Dependent Effect | Activity (BV-2 [20]): Dose-Dependent Effect | inhibition [2]: 7.5% | Activity (BV-2 [21]): Dose-Dependent Effect | Activity (Mus musculus [22]): Dose-Dependent Effect | inhibition [3]: < 5% | Activity [23]: Non-Toxic | Activity [24]: Non-Toxic | IC50 (Acetylcholinesterase [4]): 0.053 µM | Activity (BV-2 [25]): Active | Activity [26]: Non-Toxic | Activity [27]: Dose-Dependent Effect | Activity [28]: Non-Toxic | Activity [29]: Tde | Activity (BV-2 [30]): Dose-Dependent Effect | Activity [31]: Tde | Activity (BV-2 [32]): Active | Activity [33]: Active | Activity (Mus musculus [34]): inactive | Activity [35]: Non-Toxic | Activity [36]: Dose-Dependent Effect | Activity (BV-2 [37]): Tde | Stability [38]: Unstable

COC(=O)/C=C/C(=O)Nc1cccc(OCCCCSC(=S)N2CCC(O)CC2)c1
IC50 (Acetylcholinesterase [1]): 76.5 µM | inhibition [2]: 10.1%

COC(=O)/C=C/C(=O)Nc1cccc(OCCCCSC(=S)N2CCCC2)c1
Papp at 18 h (in vitro): 10.4 ×10⁻⁶ cm/s | IC50 (Acetylcholinesterase [1]): 8.14 µM | inhibition [2]: 8.8% | inhibition [3]: < 5% | IC50 (Acetylcholinesterase [4]): 6.04 µM

COC(=O)/C=C/C(=O)Nc1ccc(OCCCCSC(=S)N2CCCCC2C)cc1 (centres undefined)
Papp at 18 h (in vitro): 12.7 ×10⁻⁶ cm/s | IC50 (Acetylcholinesterase [1]): 0.49 µM | inhibition [2]: 18% | inhibition [3]: < 5% | IC50 (Acetylcholinesterase [4]): 0.38 µM

COC(=O)/C=C/C(=O)Nc1cccc(OCCCCSC(=S)N2CCC(N3CCCCC3)CC2)c1
IC50 (Acetylcholinesterase [1]): 12.7 µM | inhibition [2]: 5.6%

COC(=O)/C=C/C(=O)Nc1cccc(OCCCCSC(=S)N2CCC(C)CC2)c1
IC50 (Acetylcholinesterase [1]): 19.7 µM | inhibition [2]: 8.48%
